Measured values taken from PubChem BioAssay (NCI).
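Dose response: 5 concentrations. Exposure: 48 h. Format: 96-well plates. Endpoint: linear interpolation; highest concentration if not reached. At the TGI there is no net growth.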

What was measured:
Experiment in all cases: NCI tumour cell line growth inhibition, 48 h
RXF-631 renal = test system: RXF-631 renal
DMS 273 small cell lung = test system: DMS 273 small cell lung
RXF 393 renal = test system: RXF 393 renal
HCC-2998 colon = test system: HCC-2998 colon
SW-620 colon = test system: SW-620 colon
ACHN renal = test system: ACHN renal
OVCAR-8 ovarian = test system: OVCAR-8 ovarian
MOLT-4 leukemia = test system: MOLT-4 leukemia
SNB-75 CNS = test system: SNB-75 CNS
CAKI-1 renal = test system: CAKI-1 renal
COLO 205 colon = test system: COLO 205 colon
UO-31 renal = test system: UO-31 renal
SK-MEL-2 melanoma = test system: SK-MEL-2 melanoma
A549 NSCLC = test system: A549 NSCLC
MALME-3M melanoma = test system: MALME-3M melanoma
DMS 114 small cell lung = test system: DMS 114 small cell lung
NCI-H460 lung = test system: NCI-H460 lung
OVCAR-4 ovarian = test system: OVCAR-4 ovarian
M19-MEL melanoma = test system: M19-MEL melanoma
SF-295 CNS = test system: SF-295 CNS
OVCAR-5 ovarian = test system: OVCAR-5 ovarian
DLD-1 colon = test system: DLD-1 colon
SF-268 CNS = test system: SF-268 CNS
HOP-92 NSCLC = test system: HOP-92 NSCLC
UACC-62 melanoma = test system: UACC-62 melanoma
SK-OV-3 ovarian = test system: SK-OV-3 ovarian
EKVX NSCLC = test system: EKVX NSCLC
M14 melanoma = test system: M14 melanoma
XF 498 CNS = test system: XF 498 CNS
HCT-15 colon = test system: HCT-15 colon
LXFL 529 NSCLC = test system: LXFL 529 NSCLC
HT29 colon = test system: HT29 colon
SN12C renal = test system: SN12C renal
SK-MEL-5 melanoma = test system: SK-MEL-5 melanoma
CCRF-CEM leukemia = test system: CCRF-CEM leukemia
OVCAR-3 ovarian = test system: OVCAR-3 ovarian
NCI-H522 lung = test system: NCI-H522 lung
IGROV1 ovarian = test system: IGROV1 ovarian
HOP-18 NSCLC = test system: HOP-18 NSCLC
HL-60(TB) leukemia = test system: HL-60(TB) leukemia
KM12 colon = test system: KM12 colon
KM20L2 colon = test system: KM20L2 colon
HOP-62 NSCLC = test system: HOP-62 NSCLC
LOX IMVI melanoma = test system: LOX IMVI melanoma
RPMI-8226 leukemia = test system: RPMI-8226 leukemia
NCI-H23 lung = test system: NCI-H23 lung
SNB-19 CNS = test system: SNB-19 CNS
TK-10 renal = test system: TK-10 renal
SF-539 CNS = test system: SF-539 CNS
UACC-257 melanoma = test system: UACC-257 melanoma
SK-MEL-28 melanoma = test system: SK-MEL-28 melanoma
U251 CNS = test system: U251 CNS
786-0 renal = test system: 786-0 renal
K-562 leukemia = test system: K-562 leukemia

COC1OC(COCc2ccc(Cl)cc2)C(OCc2ccc(Cl)cc2)C1O (centres undefined)
TGI (RXF-631 renal): 34.6 µM | TGI (DMS 273 small cell lung): 31.7 µM | TGI (RXF 393 renal): 29.1 µM | TGI (HCC-2998 colon): 32.6 µM | TGI (SW-620 colon): 29.6 µM | TGI (ACHN renal): 40.2 µM | TGI (OVCAR-8 ovarian): 69.7 µM | TGI (MOLT-4 leukemia): 66.6 µM | TGI (SNB-75 CNS): 32.8 µM | TGI (CAKI-1 renal): 54.2 µM | TGI (COLO 205 colon): 34.3 µM | TGI (UO-31 renal): 29.4 µM | TGI (SK-MEL-2 melanoma): 30.6 µM | TGI (A549 NSCLC): 37.5 µM | TGI (MALME-3M melanoma): 30.3 µM | TGI (DMS 114 small cell lung): 32.8 µM | TGI (NCI-H460 lung): 32 µM | TGI (OVCAR-4 ovarian): > 100 µM | TGI (M19-MEL melanoma): 35.9 µM | TGI (SF-295 CNS): 32.3 µM | TGI (OVCAR-5 ovarian): 30 µM | TGI (DLD-1 colon): 34.1 µM | TGI (SF-268 CNS): 35.5 µM | TGI (HOP-92 NSCLC): 25.1 µM | TGI (UACC-62 melanoma): 31.9 µM | TGI (SK-OV-3 ovarian): 65.9 µM | TGI (EKVX NSCLC): 46.3 µM | TGI (M14 melanoma): 31 µM | TGI (XF 498 CNS): 16 µM | TGI (HCT-15 colon): 32.3 µM | TGI (LXFL 529 NSCLC): 43.3 µM | TGI (HT29 colon): 33.2 µM | TGI (SN12C renal): 31.8 µM | TGI (SK-MEL-5 melanoma): 28.6 µM | TGI (CCRF-CEM leukemia): 46.7 µM | TGI (OVCAR-3 ovarian): 42.8 µM | TGI (NCI-H522 lung): 27.5 µM | TGI (IGROV1 ovarian): 50.9 µM | TGI (HOP-18 NSCLC): 25.7 µM | TGI (HL-60(TB) leukemia): 32.2 µM | TGI (KM12 colon): 29.3 µM | TGI (KM20L2 colon): 31.9 µM | TGI (HOP-62 NSCLC): 32.1 µM | TGI (LOX IMVI melanoma): 32.8 µM | TGI (RPMI-8226 leukemia): > 100 µM | TGI (NCI-H23 lung): 31.9 µM | TGI (SNB-19 CNS): 32.4 µM | TGI (TK-10 renal): 67.4 µM | TGI (SF-539 CNS): 30.3 µM | TGI (UACC-257 melanoma): 30.7 µM | TGI (SK-MEL-28 melanoma): 31.4 µM | TGI (U251 CNS): 29.1 µM | TGI (786-0 renal): 30.8 µM | TGI (K-562 leukemia): 38.5 µM
